In PubChem BioAssay AID179 (DTP/NCI, 2004):
“And” between values parts separate entries of the source, which are not always exact repeats. Equal entries are not always repeated. The source made the active and inactive calls.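 Rule for the calls: active = compounds giving half or more protection of infected cells from virus-caused growth loss, again on retest; inactive = the rest.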 Where a SMILES comes first, the peptide text is derived from it. [ ]: non-standard residue; d: D form. The star is where a group is joined. Chg = N[CH](C(=O)O)C1CCCCC1; Cbz = O=C(OCc1ccccc1)*; OBn = c1ccc(CO*)cc1

Test system: CEM cells HIV-1 protection, formazan growth assay
Assay: NCI AIDS Antiviral Assay
Conditions: for IC50: measured here: growth of uninfected CEM cells
How it was run: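 Screen of anti-HIV-1 activity in human CEM cells using a formazan-based growth measurement at five drug concentrations. Hits with 50% or greater protection were repeated, and confirmation required reproducible complete protection.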

SMILES | EC50 | IC50 | outcome
Nc1ccc(/C=C/c2ccc(N=Nc3ccc(/C=C/c4ccc(N=Nc5ccc(/C=C/c6ccc(N=Nc7ccc(/C=C/c8ccc(N)cc8S(=O)(=O)O)c(S(=O)(=O)O)c7)cc6S(=O)(=O)O)c(S(=O)(=O)O)c5)cc4S(=O)(=O)O)c(S(=O)(=O)O)c3)cc2S(=O)(=O)O)c(S(=O)(=O)O)c1 | 1.78 µM | 186 µM | –
NC1CC(=O)c2csc(Br)c21 (stereo not drawn) | > 57.5 µM | 11 µM | –
O=C1COc2ccc([N+](=O)[O-])cc2C(=O)C1 | > 200 µM | > 200 µM | –
Cc1cccc(N2C(=O)C(=O)C(c3nc4ccccc4s3)/C(=N/NC(=S)NN)C2=O)c1C (stereo not drawn) | > 269 µM | > 269 µM | –
CC=C=C(C)CN | > 447 µM | > 447 µM | –
CCOC(=O)c1nc(C)c(-c2ccccc2)c(-c2ccccc2)c1C | > 11.5 µM | > 11.5 µM | –
N#CC(=C(c1ccccc1)c1ccccc1)c1ccccc1 | > 151 µM | > 151 µM | –
CC(C)CCCC(C)[C@H]1CC[C@H]2[C@@H]3CC[C@H]4C[C@@H](CCC=C(c5cc(Cl)c(OCc6ccccc6[N+](=O)[O-])c(C(=O)O)c5)c5cc(Cl)c(OCc6ccccc6[N+](=O)[O-])c(C(=O)O)c5)CC[C@]4(C)[C@H]3CC[C@]12C (stereo partly drawn) | > 200 µM and 120 µM | > 200 µM and 166 µM | inactive
O=S(O)CCCCSSCCCCSSCCCCS(=O)O | – | – | inactive
Nc1ccc2nc3ccc(O)cc3nc2c1 | > 200 µM | 17 µM | –
COc1ccc(-c2sc(N)c(C#N)c2C)cc1OC | – | – | inactive
O=C(Cc1nc2ccccc2o1)C(=O)Nc1ccc(Cl)cc1Cl | > 7.76 µM | > 7.76 µM | –
CCOC(=O)C#CCC/C=C(\C)COC1CCCCO1 (stereo not drawn) | – | – | inactive
COc1cc(C)cc2c1C(=O)C(Br)=CC2=O | > 200 µM | 1.95 µM | –
O=C(Nc1ccc(C(=O)O)c(O)c1)c1ccc(C(=O)Nc2ccc(C(=O)O)c(O)c2)cc1 | > 200 µM | 89.1 µM | –
O=c1c2ccccc2c(=O)n2n1CC=CC2 | – | – | inactive
COC(=O)C(NC(=O)C(CC(=O)OCc1ccccc1)NC(=O)OCc1ccccc1)C1CCCCC1 (stereo not drawn) (Cbz-Asp(OBn)-[Chg]-OMe; configuration not given here) | > 200 µM | 105 µM | –
O=C1OC(c2ccccc2)c2cccnc21 (stereo not drawn) | > 1170 µM | > 1170 µM | –
O=C(/C=C/c1ccccc1Br)c1ccccc1 | > 200 µM | 3.16 µM | –
COc1ccc([C@H]2CC(=O)N3CCCC3N2)cc1 (stereo partly drawn) | > 200 µM | > 200 µM | –
COC1(C2c3ccccc3CCN2C(=O)OC(C)(C)C)C(=O)C(c2ccccc2)=C1N(C)C (stereo not drawn) | > 200 µM | 36.3 µM | –

SMILES | EC50 | IC50 | outcome
Cc1cc(=O)[nH]c(NNC(C#N)c2ccccc2O)n1 (stereo not drawn) | > 182 µM | 0.38 µM | –
CO[C@@]12[C@@H]3N[C@@H]3CN1C1=C(C(=O)C(NCCc3ccccn3)=C(C)C1=O)[C@@H]2COC(N)=O | > 200 µM | 2 µM | –
Cc1cc(S(=O)(=O)Nc2nnc3c(Cl)cc(C(F)(F)F)cn23)c(S)cc1Cl | 70.8 µM | 380 µM | –
Cc1c(N=Nc2ccc([N+](=O)[O-])cc2)nc2scc(-c3ccccc3)n12 | > 14.5 µM | > 14.5 µM | –
C=C1OC(=O)/C(=C/CCCCCCCCCCCCCCCCC)[C@@H]1O | > 27.5 µM | > 27.5 µM | –
C=C1[C@@H]2CC[C@@]3([C@@H](C2)[C@@]24CCC[C@@]5(C)CN(CCO)[C@@H]2O[C@@H]3C[C@H]54)[C@@H]1O | – | – | inactive
CC1C2(C)OC(=N)C(C#N)(C(c3ccco3)O2)C1(C#N)C#N (stereo not drawn) | > 200 µM | 14.5 µM | –
[N-]=[N+]=NC1C[C@H](n2cc(/C=C/Br)c(=O)[nH]c2=O)C[C@@H]1CO (stereo partly drawn) | > 363 µM | 355 µM | –
C=CCOC(=O)CC[N+]1=CCC(c2ccccc2)(c2ccccc2)O1 | > 29.5 µM | > 29.5 µM | –
Cn1nc(/C=C/c2ccccc2)nc2c(=O)n(C)c(=O)nc1-2 | > 200 µM | 0.631 µM | –
CCOC(=O)[C@H]1Nc2c(cccc2[N+](=O)[O-])[C@H]2OCC[C@@H]12 | > 447 µM | > 447 µM | –
COc1ccc2[nH]c3c(c2c1)CCc1c(OC)cccc1-3 | > 200 µM | 178 µM | –
CCOP(=O)(OCC)/C(=C\NC(=S)N=Nc1c(O)[nH]c2ccccc12)C(=O)OC | > 200 µM | 117 µM | –
C=C(C)C1CC=C(C)C(O)([C@@]2(O)C[C@H](C(=C)C)CC=C2C)C1 (stereo partly drawn) | – | – | inactive
O=C(NCc1cccnc1)C1COc2cc(-c3cc(=O)c4ccccc4o3)ccc2O1 (stereo not drawn) | – | – | inactive
O=C(O)CN(CC(=O)O)CC(O)CN(CC(=O)O)CC(=O)O | > 200 µM | 69.2 µM | –
NNC(=O)Cn1c2ccc(Br)cc2c2nc3ccccc3nc21 | > 200 µM | 28.2 µM | –
N#CC(C#N)=CN1CCOCC1 | > 200 µM | > 200 µM | –
O=C(CN1CCOCC1)Nc1ccc2c(c1)C1Oc3ccccc3CC1CO2 (stereo not drawn) | – | – | inactive
CC1Cc2c(N)nc(N3CCOCC3)nc2NC1=O (stereo not drawn) | – | – | inactive
Cc1ccc(-c2n[nH]c(=O)n2NC(=O)c2ccccc2C(=O)O)cc1 | – | – | inactive

SMILES | EC50 | IC50 | outcome
COc1ccc(C(=O)/C=C/c2ccc3c(c2)OCO3)c(O)c1 | > 200 µM | 81.3 µM | –
COc1ccc2c(CN3CCCCC3CO)cc3cc(OC)c(OC)cc3c2c1 (stereo not drawn) | – | – | inactive
Cc1nn(-c2ccccc2)c(CC(Cc2c([N+](=O)[O-])c(C)nn2-c2ccccc2)c2ccccc2)c1[N+](=O)[O-] | > 10 µM | > 10 µM | –
CCCCCCCCCCCCCCCCCCNc1nc(=O)n(C2CC(O)C(COP(=O)(O)OCC3CCC(n4ccc(N)nc4=O)O3)O2)cc1F (stereo not drawn) | 1.51 µM | 2.04 µM | –
CC1(C)/C=C/CC2(C)Oc3ccccc3C[C@@H]2CCC2(C)Oc3ccccc3C[C@@H]2C1 (stereo partly drawn) | > 12 µM | > 12 µM | –
CC(=O)OCc1cccc(O)c1C(=O)CCC=C(C)C | > 200 µM | 148 µM | –
Cn1cnc(=S)c2ccccc21 | > 200 µM | > 200 µM | –
CC(=N/NC(=S)N(C)C)/C(=N\NC(=S)N(C)C)c1ccccc1 | > 200 µM | 3.63 µM | –
Cc1cccc(C(C)(C)C)c1NC(=O)C(=O)C(C(=O)/C=C\c1ccccc1)C1OC(=O)c2ccccc21 (stereo not drawn) | > 214 µM | 58.9 µM | –
Cc1ccc2c(c1)C(c1cccc3ccccc13)OC2=O (stereo not drawn) | – | – | inactive
Cc1c(C2(c3cc(Br)c(O)c(Br)c3C)OS(=O)(=O)c3ccccc32)cc(Br)c(O)c1Br | – | – | inactive
CC(=O)NC(CCCCN(Cc1ccccc1)C(=O)N(CCCl)N=O)C(=O)NCc1ccccc1 (stereo not drawn) | > 72.4 µM | > 72.4 µM | –
CCOC(=O)C1CCn2c(nc3c(=O)n(C)c(=O)n(C)c32)S1 (stereo not drawn) | – | – | inactive
Cn1c(=O)cc(O)c2ccccc21 | > 200 µM | > 200 µM | –
CC(C)(CN1CCCCC1)C(=O)/C=C/c1ccc(Cl)cc1 | > 36.3 µM | 7.94 µM | –
CC(C)C1NC(=O)CC(c2ccccc2)N(N=O)C1c1ccccc1 (stereo not drawn) | > 77.6 µM | > 77.6 µM | –
COc1cc([N+](=O)[O-])c(S(=O)(=O)O)cc1-[n+]1nc(C(=O)Nc2ccccc2)nn1-c1ccc([N+](=O)[O-])c(S(=O)(=O)[O-])c1 | > 200 µM | > 200 µM | –
O=C(COc1ccc(OCC(=O)N2C(=O)CN(c3ccc(Cl)cc3)C2=S)cc1)N1C(=O)CN(c2ccc(Cl)cc2)C1=S | > 200 µM | 43.7 µM | –
COc1ccc(/C=c2\sc3n(c2=O)CCN=3)cc1 | – | – | inactive
